Experimental data from ChEMBL document CHEMBL4507279, “Data for DCP probe BI-9627” (2021).

Legend:
[1] = molecular target: Cyclin-dependent kinase 4 (Homo sapiens) (UniProt P11802); conditions: Compound concentration 1000.0 nM
[2] = molecular target: Serine/threonine-protein kinase PLK2 (Homo sapiens) (UniProt Q9NYY3); conditions: Compound concentration 1000.0 nM
[3] = molecular target: Phosphatidylinositol 4-phosphate 5-kinase type-1 gamma (Homo sapiens) (UniProt O60331); conditions: Compound concentration 1000.0 nM
[4] = tested on: Phosphatidylinositol 4,5-bisphosphate 3-kinase catalytic subunit alpha isoform (Homo sapiens), P42336 [I800L]; conditions: Compound concentration 1000.0 nM
[5] = molecular target: Serine/threonine-protein kinase PAK 6 (Homo sapiens) (UniProt Q9NQU5); conditions: Compound concentration 1000.0 nM
[6] = tested on: Serine/threonine-protein kinase B-raf (Homo sapiens), P15056 [V600E]; conditions: Compound concentration 1000.0 nM
[7] = molecular target: Serine/threonine-protein kinase TAO2 (Homo sapiens) (UniProt Q9UL54); conditions: Compound concentration 1000.0 nM
[8] = molecular target: G protein-coupled receptor kinase 3 (Homo sapiens) (UniProt P35626); conditions: Compound concentration 1000.0 nM
[9] = molecular target: Ribosomal protein S6 kinase alpha-6 (Homo sapiens) (UniProt Q9UK32); conditions: Compound concentration 1000.0 nM
[10] = molecular target: Megakaryocyte-associated tyrosine-protein kinase (Homo sapiens) (UniProt P42679); conditions: Compound concentration 1000.0 nM
[11] = molecular target: Citron Rho-interacting kinase (Homo sapiens) (UniProt O14578); conditions: Compound concentration 1000.0 nM
[12] = molecular target: Serine/threonine-protein kinase PLK4 (Homo sapiens) (UniProt O00444); conditions: Compound concentration 1000.0 nM
Chain of Serine/threonine-protein kinase PLK4 (Homo sapiens) (O00444 whole entry): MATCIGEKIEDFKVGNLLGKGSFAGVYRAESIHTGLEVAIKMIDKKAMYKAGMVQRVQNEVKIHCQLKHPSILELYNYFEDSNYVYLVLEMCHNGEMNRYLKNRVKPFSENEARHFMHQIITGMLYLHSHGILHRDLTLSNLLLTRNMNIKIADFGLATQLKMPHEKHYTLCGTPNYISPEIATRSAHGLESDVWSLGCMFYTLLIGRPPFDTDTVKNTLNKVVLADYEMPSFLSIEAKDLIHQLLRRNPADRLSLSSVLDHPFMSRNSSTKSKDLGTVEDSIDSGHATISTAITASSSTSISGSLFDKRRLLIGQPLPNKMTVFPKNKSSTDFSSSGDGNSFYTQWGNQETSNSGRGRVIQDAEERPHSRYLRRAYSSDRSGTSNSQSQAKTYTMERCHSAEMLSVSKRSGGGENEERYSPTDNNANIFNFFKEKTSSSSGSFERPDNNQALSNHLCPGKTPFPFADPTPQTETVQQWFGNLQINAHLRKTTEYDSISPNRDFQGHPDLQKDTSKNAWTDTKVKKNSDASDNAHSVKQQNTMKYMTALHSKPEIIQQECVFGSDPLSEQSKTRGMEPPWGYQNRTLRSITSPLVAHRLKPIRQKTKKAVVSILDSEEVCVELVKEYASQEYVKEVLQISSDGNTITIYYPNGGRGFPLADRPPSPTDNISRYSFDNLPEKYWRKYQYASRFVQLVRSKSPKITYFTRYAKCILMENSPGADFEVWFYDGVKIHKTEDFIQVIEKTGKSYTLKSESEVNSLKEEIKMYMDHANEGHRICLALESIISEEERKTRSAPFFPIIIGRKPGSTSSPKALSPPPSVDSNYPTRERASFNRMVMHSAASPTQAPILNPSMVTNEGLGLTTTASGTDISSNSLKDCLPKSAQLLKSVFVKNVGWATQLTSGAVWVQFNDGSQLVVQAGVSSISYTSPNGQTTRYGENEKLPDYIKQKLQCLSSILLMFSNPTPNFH

[13] = molecular target: Rho-associated protein kinase 2 (Homo sapiens) (UniProt O75116); conditions: Compound concentration 1000.0 nM
[14] = molecular target: Dual specificity mitogen-activated protein kinase kinase 2 (Homo sapiens) (UniProt P36507); conditions: Compound concentration 1000.0 nM
Chain of Dual specificity mitogen-activated protein kinase kinase 2 (Homo sapiens) (P36507 whole entry): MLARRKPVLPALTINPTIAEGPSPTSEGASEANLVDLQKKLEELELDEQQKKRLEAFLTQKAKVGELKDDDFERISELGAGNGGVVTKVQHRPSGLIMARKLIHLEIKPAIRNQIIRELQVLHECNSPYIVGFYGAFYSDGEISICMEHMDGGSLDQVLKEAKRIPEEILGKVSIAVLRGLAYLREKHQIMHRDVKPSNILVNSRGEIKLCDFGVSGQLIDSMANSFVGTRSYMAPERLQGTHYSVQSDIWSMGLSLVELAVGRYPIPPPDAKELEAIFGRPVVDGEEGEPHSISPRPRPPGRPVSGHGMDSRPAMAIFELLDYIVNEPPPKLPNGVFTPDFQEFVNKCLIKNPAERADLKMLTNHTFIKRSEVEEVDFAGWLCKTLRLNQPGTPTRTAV

[15] = molecular target: Serine/threonine-protein kinase 26 (Homo sapiens) (UniProt Q9P289); conditions: Compound concentration 1000.0 nM
[16] = molecular target: Protein-tyrosine kinase 6 (Homo sapiens) (UniProt Q13882); conditions: Compound concentration 1000.0 nM
[17] = tested on: Mast/stem cell growth factor receptor Kit (Homo sapiens), P10721 [L576P]; conditions: Compound concentration 1000.0 nM
[18] = molecular target: Mitogen-activated protein kinase kinase kinase 6 (Homo sapiens) (UniProt O95382); conditions: Compound concentration 1000.0 nM
[19] = molecular target: Serine/threonine-protein kinase B-raf (Homo sapiens) (UniProt P15056); conditions: Compound concentration 1000.0 nM
[20] = molecular target: Tyrosine-protein kinase HCK (Homo sapiens) (UniProt P08631); conditions: Compound concentration 1000.0 nM
Chain of Tyrosine-protein kinase HCK (Homo sapiens) (P08631 2-526 limits assumed): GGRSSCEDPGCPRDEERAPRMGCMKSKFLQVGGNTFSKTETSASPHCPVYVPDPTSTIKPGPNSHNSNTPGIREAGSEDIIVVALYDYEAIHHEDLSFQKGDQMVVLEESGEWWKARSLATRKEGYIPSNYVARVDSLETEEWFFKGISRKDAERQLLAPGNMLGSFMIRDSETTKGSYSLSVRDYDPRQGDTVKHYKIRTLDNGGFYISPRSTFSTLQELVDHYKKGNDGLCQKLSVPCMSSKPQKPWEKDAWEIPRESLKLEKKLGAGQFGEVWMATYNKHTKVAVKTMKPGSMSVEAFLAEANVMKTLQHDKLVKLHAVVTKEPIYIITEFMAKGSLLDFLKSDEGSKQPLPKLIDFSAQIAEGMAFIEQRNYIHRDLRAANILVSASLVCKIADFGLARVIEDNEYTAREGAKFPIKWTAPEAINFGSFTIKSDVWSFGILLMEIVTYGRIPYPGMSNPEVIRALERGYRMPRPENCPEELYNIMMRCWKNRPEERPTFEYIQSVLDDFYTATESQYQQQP

[21] = molecular target: Calcium/calmodulin-dependent protein kinase kinase 1 (Homo sapiens) (UniProt Q8N5S9); conditions: Compound concentration 1000.0 nM
[22] = molecular target: Protein kinase C epsilon type (Homo sapiens) (UniProt Q02156); conditions: Compound concentration 1000.0 nM
[23] = molecular target: Serine/threonine-protein kinase 32B (Homo sapiens) (UniProt Q9NY57); conditions: Compound concentration 1000.0 nM
[24] = molecular target: 5'-AMP-activated protein kinase catalytic subunit alpha-1 (Homo sapiens) (UniProt Q13131); conditions: Compound concentration 1000.0 nM
Chain of 5'-AMP-activated protein kinase catalytic subunit alpha-1 (Homo sapiens) (Q13131 whole entry, looked up): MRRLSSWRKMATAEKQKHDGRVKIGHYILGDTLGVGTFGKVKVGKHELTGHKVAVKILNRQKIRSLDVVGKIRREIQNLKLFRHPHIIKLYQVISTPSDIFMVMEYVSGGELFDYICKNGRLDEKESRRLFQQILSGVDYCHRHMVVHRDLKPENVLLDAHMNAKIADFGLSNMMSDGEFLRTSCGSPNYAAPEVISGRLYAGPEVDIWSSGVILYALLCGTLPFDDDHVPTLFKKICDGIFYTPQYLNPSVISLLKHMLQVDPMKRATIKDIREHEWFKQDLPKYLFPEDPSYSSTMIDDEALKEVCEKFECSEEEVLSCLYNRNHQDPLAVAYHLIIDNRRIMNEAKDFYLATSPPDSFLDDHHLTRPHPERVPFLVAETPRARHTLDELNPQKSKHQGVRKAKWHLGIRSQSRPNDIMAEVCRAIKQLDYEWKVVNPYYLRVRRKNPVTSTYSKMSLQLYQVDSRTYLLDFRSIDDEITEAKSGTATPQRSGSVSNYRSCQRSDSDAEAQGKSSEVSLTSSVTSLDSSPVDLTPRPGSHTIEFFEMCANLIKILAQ

[25] = molecular target: NUAK family SNF1-like kinase 2 (Homo sapiens) (UniProt Q9H093); conditions: Compound concentration 1000.0 nM
[26] = molecular target: Non-receptor tyrosine-protein kinase TYK2 (Homo sapiens) (UniProt P29597); conditions: Compound concentration 1000.0 nM
[27] = molecular target: Serine/threonine-protein kinase SIK3 (Homo sapiens) (UniProt Q9Y2K2); conditions: Compound concentration 1000.0 nM
[28] = molecular target: Uncharacterized serine/threonine-protein kinase SBK3 (Homo sapiens) (UniProt P0C264); conditions: Compound concentration 1000.0 nM
Chain of Uncharacterized serine/threonine-protein kinase SBK3 (Homo sapiens) (P0C264 whole entry): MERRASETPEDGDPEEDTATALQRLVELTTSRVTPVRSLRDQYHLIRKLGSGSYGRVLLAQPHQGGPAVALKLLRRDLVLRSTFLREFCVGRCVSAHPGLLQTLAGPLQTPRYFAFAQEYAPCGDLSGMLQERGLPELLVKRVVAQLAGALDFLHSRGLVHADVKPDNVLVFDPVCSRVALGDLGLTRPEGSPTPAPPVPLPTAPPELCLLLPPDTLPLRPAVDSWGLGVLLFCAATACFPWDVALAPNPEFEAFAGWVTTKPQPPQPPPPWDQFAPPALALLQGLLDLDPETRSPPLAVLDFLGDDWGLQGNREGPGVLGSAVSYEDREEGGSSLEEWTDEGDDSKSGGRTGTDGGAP

[29] = tested on: Fibroblast growth factor receptor 3 (Homo sapiens), P22607 [G697C]; conditions: Compound concentration 1000.0 nM
Chain of Fibroblast growth factor receptor 3 (Homo sapiens), P22607 [G697C] (P22607 whole entry G697C): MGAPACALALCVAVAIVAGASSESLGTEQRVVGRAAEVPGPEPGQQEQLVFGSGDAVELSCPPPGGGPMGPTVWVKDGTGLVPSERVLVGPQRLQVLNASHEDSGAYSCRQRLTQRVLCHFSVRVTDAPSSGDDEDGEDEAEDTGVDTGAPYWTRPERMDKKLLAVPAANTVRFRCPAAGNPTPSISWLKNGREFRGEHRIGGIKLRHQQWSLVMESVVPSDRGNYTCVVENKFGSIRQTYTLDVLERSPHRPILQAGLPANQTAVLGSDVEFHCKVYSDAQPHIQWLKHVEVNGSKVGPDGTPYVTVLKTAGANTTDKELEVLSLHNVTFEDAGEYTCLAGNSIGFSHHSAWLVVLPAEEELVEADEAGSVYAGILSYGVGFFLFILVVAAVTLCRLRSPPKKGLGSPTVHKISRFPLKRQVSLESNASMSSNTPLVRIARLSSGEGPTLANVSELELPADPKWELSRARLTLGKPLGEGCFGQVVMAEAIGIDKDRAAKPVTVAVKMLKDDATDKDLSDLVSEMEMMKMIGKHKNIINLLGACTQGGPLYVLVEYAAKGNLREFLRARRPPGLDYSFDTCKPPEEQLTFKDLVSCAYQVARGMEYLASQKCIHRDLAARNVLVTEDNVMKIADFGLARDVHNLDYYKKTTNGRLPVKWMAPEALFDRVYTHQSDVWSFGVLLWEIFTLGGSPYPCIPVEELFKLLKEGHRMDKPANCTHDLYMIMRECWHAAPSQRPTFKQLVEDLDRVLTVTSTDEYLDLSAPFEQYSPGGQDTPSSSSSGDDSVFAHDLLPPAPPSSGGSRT

[30] = molecular target: Serine/threonine-protein kinase DCLK1 (Homo sapiens) (UniProt O15075); conditions: Compound concentration 1000.0 nM
[31] = molecular target: Tyrosine-protein kinase ABL2 (Homo sapiens) (UniProt P42684); conditions: Compound concentration 1000.0 nM
[32] = molecular target: Phosphorylase b kinase regulatory subunit alpha, liver isoform (Homo sapiens) (UniProt P46019); conditions: Compound concentration 1000.0 nM
[33] = tested on: eIF-2-alpha kinase GCN2 (Homo sapiens), Q9P2K8 [S808G]; conditions: Compound concentration 1000.0 nM
[34] = molecular target: Activin receptor type-1 (Homo sapiens) (UniProt Q04771); conditions: Compound concentration 1000.0 nM
Chain of Activin receptor type-1 (Homo sapiens) (Q04771 whole entry): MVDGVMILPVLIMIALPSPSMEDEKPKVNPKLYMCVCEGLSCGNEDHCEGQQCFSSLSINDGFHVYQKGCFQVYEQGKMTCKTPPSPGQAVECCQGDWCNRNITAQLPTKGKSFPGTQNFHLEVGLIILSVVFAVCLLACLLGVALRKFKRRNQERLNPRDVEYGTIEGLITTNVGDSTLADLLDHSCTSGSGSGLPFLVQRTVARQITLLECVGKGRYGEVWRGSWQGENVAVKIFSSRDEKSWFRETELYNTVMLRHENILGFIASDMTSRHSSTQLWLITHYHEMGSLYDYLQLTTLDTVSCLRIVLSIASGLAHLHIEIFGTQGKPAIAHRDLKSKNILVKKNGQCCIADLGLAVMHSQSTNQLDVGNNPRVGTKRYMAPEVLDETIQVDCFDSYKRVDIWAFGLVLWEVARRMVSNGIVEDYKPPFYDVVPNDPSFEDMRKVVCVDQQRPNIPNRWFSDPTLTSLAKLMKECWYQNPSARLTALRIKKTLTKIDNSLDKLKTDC

[35] = molecular target: Ephrin type-A receptor 6 (Homo sapiens) (UniProt Q9UF33); conditions: Compound concentration 1000.0 nM
[36] = molecular target: STE20-like serine/threonine-protein kinase (Homo sapiens) (UniProt Q9H2G2); conditions: Compound concentration 1000.0 nM
[37] = molecular target: GABA-A receptor; anion channel (Rattus norvegicus) (UniProt O09028+P15431+P18506+P18508+P19969+P20236+P23574+P23576+P28471+P28473+P30191+P62813+P63079+P63138+Q91ZM7+Q9ES14); conditions: Compound concentration 10.0 uM
[38] = molecular target: Receptor-interacting serine/threonine-protein kinase 4 (Homo sapiens) (UniProt P57078); conditions: Compound concentration 1000.0 nM
[39] = molecular target: Myosin light chain kinase (Homo sapiens) (UniProt Q32MK0); conditions: Compound concentration 1000.0 nM
[40] = molecular target: Serine/threonine-protein kinase Sgk3 (Homo sapiens) (UniProt Q96BR1); conditions: Compound concentration 1000.0 nM
Chain of Serine/threonine-protein kinase Sgk3 (Homo sapiens) (Q96BR1 whole entry): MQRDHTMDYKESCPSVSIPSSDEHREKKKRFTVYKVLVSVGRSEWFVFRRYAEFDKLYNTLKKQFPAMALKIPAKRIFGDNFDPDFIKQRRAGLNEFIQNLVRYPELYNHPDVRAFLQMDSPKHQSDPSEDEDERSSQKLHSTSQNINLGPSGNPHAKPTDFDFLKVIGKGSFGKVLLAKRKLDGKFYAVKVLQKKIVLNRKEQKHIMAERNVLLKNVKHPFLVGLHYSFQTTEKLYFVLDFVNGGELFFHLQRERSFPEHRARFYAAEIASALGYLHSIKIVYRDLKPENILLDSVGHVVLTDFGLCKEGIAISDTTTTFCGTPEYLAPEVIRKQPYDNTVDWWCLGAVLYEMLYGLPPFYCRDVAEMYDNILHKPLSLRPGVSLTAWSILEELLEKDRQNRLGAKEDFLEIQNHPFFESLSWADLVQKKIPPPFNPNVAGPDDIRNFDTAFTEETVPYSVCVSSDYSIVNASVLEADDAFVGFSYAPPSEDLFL

[41] = molecular target: Ribosomal protein S6 kinase beta-1 (Homo sapiens) (UniProt P23443); conditions: Compound concentration 1000.0 nM
[42] = molecular target: Dual specificity mitogen-activated protein kinase kinase 5 (Homo sapiens) (UniProt Q13163); conditions: Compound concentration 1000.0 nM

Chain of Cyclin-dependent kinase 4 (Homo sapiens) (P11802 whole entry): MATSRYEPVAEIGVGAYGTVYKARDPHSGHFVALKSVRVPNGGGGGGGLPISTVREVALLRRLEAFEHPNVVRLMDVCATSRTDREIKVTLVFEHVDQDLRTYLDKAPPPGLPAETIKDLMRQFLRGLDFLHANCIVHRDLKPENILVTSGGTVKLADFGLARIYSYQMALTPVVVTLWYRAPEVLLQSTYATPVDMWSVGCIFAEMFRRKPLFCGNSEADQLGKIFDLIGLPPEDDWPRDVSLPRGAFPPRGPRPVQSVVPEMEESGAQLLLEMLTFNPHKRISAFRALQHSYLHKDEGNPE

CC(=O)N1CCC(c2ccc(C(=O)NC3=NCCN3)cc2C(F)(F)F)CC1 [BI 0054]
inactive: residual activity [1] 94% | residual activity [2] 80% | residual activity [3] 99% | residual activity [4] 94% | residual activity [5] 100% | residual activity [6] 100% | residual activity [7] 100% | residual activity [8] 76% | residual activity [9] 94% | residual activity [10] 100% | residual activity [11] 100% | residual activity [12] 100% | residual activity [13] 73% | residual activity [14] 100% | residual activity [15] 89% | residual activity [16] 88% | residual activity [17] 95% | residual activity [18] 93% | residual activity [19] 100% | residual activity [20] 100% | residual activity [21] 100% | residual activity [22] 84% | residual activity [23] 100% | residual activity [24] 100% | residual activity [25] 90% | residual activity [26] 100% | residual activity [27] 100% | residual activity [28] 100% | residual activity [29] 87% | residual activity [30] 89% | residual activity [31] 100% | residual activity [32] 100% | residual activity [33] 52% | residual activity [34] 100% | residual activity [35] 98% | residual activity [36] 94% | inhibition [37] 17% | residual activity [38] 64% | residual activity [39] 100% | residual activity [40] 82% | residual activity [41] 100% | residual activity [42] 92%

CC(=O)N1CCC(c2ccc(C(=O)NC(=N)N)cc2C(F)(F)F)CC1 [BI 9627]
inactive: residual activity [1] 97% | residual activity [2] 93% | residual activity [3] 100% | residual activity [4] 90% | residual activity [5] 100% | residual activity [6] 100% | residual activity [7] 94% | residual activity [8] 92% | residual activity [9] 96% | residual activity [10] 100% | residual activity [11] 98% | residual activity [12] 100% | residual activity [13] 100% | residual activity [14] 96% | residual activity [15] 97% | residual activity [16] 100% | residual activity [17] 92% | residual activity [18] 86% | residual activity [19] 100% | residual activity [20] 100% | residual activity [21] 100% | residual activity [22] 100% | residual activity [23] 89% | residual activity [24] 97% | residual activity [25] 100% | residual activity [26] 100% | residual activity [27] 100% | residual activity [28] 100% | residual activity [29] 98% | residual activity [30] 100% | residual activity [31] 100% | residual activity [32] 100% | residual activity [33] 73% | residual activity [34] 100% | residual activity [35] 96% | residual activity [36] 100% | inhibition [37] 14.6% | residual activity [38] 76% | residual activity [39] 100% | residual activity [40] 100% | residual activity [41] 100% | residual activity [42] 86%
